Data set [1] is described as follows: Rate of release of chlorhexidine/fatty acid salts from coated polyurethane tubes into DI water. Particulars: for Cumulative release of the chlorhexidine/fatty acid salts from the coated polyurethane tubes: 1 cm coated tube in DI water, 37° C. The class given is physicochemical. As to the method: A solution of each respective chlorhexidine/fatty acid salt was prepared and used to infuse a sample of elastomeric material. To perform the test, individual samples, 8 cm pieces of polyurethane tube containing a colorant, were surface dip coated in respective solutions of the chlorhexidine/fatty acid salts. The solutions were prepared as follows: 8.6 g of Tecoflex (Noveon, Cleveland, Ohio) was dissolved in 174 g of Tetrahydrofuran and methanol. 5.88 g of chlorhexidine acetate, chlorhexidine laurate, chlorhexidine myristate, chlorhexidine palmitate and chlorhexidine stearate were individually dissolved into the polymer-solvent mixture. The samples were immersed into the solvent-polymer-salt mixture and then dried at room temperature, evaporating the solvent. A polymeric coating was produced on the surface of the tubes. The amounts of chlorhexidine/fatty acid salt adhered per cm of the tube was measured (Table 2) by exhaustively extracting the salt and measuring UV absorbance at 253 nm relative to controls: For each of the samples, the rate of release of chlorhexidine/fatty acid salts into an aqueous solution was determined. To perform the rate of release test, 1 cm from each of the coated polyurethane tubes, were submerged in DeIonized (DI) water and incubated at 37° C. for a period of 28 days to determine the rate of release of the salts from the respective 1 cm samples of coated polyurethane tubing. The water was collected and replaced with fresh water after approximately 2 hours. The water was again collected and replaced with fresh water after the first day and every seven days thereafter. The amount of chlorhexidine/fatty acid salt in the collected water was measured with an Agilent 8453 UV-Vis Diode Array Detector with a manual setup using a cuvette w/path length of 1 cm. Chlorhexidine absorbance was read at 253 nm and concentration was calculated via a calibration curve developed using standards of 1, 5, 10, 20, 30, 35, and 40 μg/mL chlorhexidine acetate in DI Water. The percentage of chlorhexidine/fatty acid salt released from the sample into an aqueous media (percent release) was calculated according to the following equation: Percent release=(cumulative release at that time period/initial content)*100.

Data set [2] concerns Pseudomonas aeruginosa ATCC 27853. The experiment in a line: Basic broth adherence assay on coated polyurethane tubes. The class given is cell-based. As to the method:
The antimicrobial effectiveness of the coated samples was subjected to different durations of DI water extraction by basic broth adherence assay. For each chlorhexidine/fatty acid salt tested, 3 samples of coated tubing were prepared and assayed. To prepare the inoculum, a culture of Pseudomonas aeruginosa ATCC 27853 was used to challenge the coated polyurethane tubes and controls. The negative control used was a length of uncoated polyurethane tube. The challenge microorganism suspension was prepared as follows: approximately three colonies were removed from a secondary working culture plated on Trypticase Soy Agar (TSA) (BD-Falcon) with 5% sheep's blood and added to 10 ml of Trypticase Soy Broth (TSB). The vial was vortexed for approximately 30 seconds and incubated for 4 hours at 37° C. at 100 rpm. Following incubation, the vial was removed and vortexed. The optical density of the organism suspension was read. The inoculum was then diluted in TSB to a concentration of 5×10^4 colony forming units per milliliter (CFU/mL). This concentration was confirmed by the Miles and Misra drop count method.
The basic broth adherence assay was performed in a 96 well micro titer plate. To each well of the micro titer plate containing either a test article or a control, 900 μl of TSB was added. To this, 100 μl of the adjusted inoculum was added (Note: Due to the 1/10 dilution per well, the starting inoculum concentration of each organism was […] for Pseudomonas aeruginosa). The micro titer plates were then sealed via parafilm® around the edges and wrapped in foil to avoid evaporation of liquid and light contact with the samples. The plates were then placed inside a shaker incubator set at 37° C. and 100 rpm for 24 hours. Incubation at 37° C. then continued until the elapse of 7 days, 14 days, and 21 days, respectively, for each of the 3 samples prepared for each chlorhexidine/fatty acid salt.
At the completion of the respective incubation periods, the samples were rinsed, sonicated, the sonicate was plated and adherence was evaluated. More particularly, following incubation, all samples and controls were dip-rinsed twice in phosphate buffered saline (PBS) to remove the surrounding media. After rinsing, test articles were sonicated in micro titer plate wells containing 1 mL of Dey-Engley (DE) neutralizing broth (Difco). The sonication liquid was then serially diluted, and plated onto the surface of DE neutralizing agar. Plates were incubated at 37° C. for 24 to 48 hours and colonies were counted. Recovery counts were recorded as CFU/mL.

Data set [3] concerns Candida albicans ATCC 10231. The experiment in a line: Zone of inhibition assay with impregnated polyurethane foam discs. The class given is cell-based. To be noted: for Zone of inhibition compared with the other salts (in words): impregnated polyurethane foam, after several daily transfers / over the 9 day assay. As to the method:
To evaluate antimicrobial properties of polyurethane foam samples infused with the various chlorhexidine/fatty acid salts, a zone of inhibition assay was performed. In this assay, 1.4% (w/v) of chlorhexidine acetate, chlorhexidine caprate, chlorhexidine laurate, chlorhexidine myristate, chlorhexidine palmitate and chlorhexidine stearate solutions in methanol were prepared. A supply of 8 mm discs were punched out of a sheet of polyurethane foam (Rynel medical grade polyurethane foam) with biopsy punches (Miltex Kai). Several discs were placed in each of six 50 ml centrifuge tubes. Approximately 5 ml of each of the different methanol/chlorhexidine/fatty acid salt solutions was added to each respective tube. The discs were centrifuged for 5 minutes to remove any air bubbles and soaked for 1 hr to infuse the foam discs with the respective chlorhexidine/fatty acid salt. Infused discs were transferred to clean centrifuge tubes and vacuum dried at 25° C. for 24 hrs to remove any residual solvents. Initial concentrations of salts, impregnated into the punches, were determined by dissolving the impregnated foams and by high pressure liquid chromatography (HPLC) analysis using an Agilent Eclipse XDB-CN 3u 4.6×150 mm column with initial mobile phase=65% DI water/0.2% trifluoroacetic acid (TFA): 35% Acetonitrile/0.2% TFA. Chlorhexidine absorbance was read at 253 nm and concentration was calculated via a chlorhexidine calibration curve. […] To perform the zone of inhibition assay on the impregnated polyurethane foam discs, agar plates were prepared by mixing 11 g Mueller-Hinton cation-adjusted broth and 1.5 g agarose in 500 ml DI water. The agar was autoclaved for 15 minutes at 121° C., 15 psi. 10 ml of the still hot, liquid agar was pipetted onto petri dishes. The challenge organism, Candida albicans ATCC 10231, was cultivated in Trypticase soy broth, standard microbiological growth medium (TSB). Sterile cotton swabs were dipped into the undiluted culture and the plated agar was fully inoculated with swabs. The 8 mm polyurethane foam discs were transferred daily to a freshly inoculated agar for 9 days. The zone of inhibition (ZOI) was measured using calipers. Actual ZOI was measured by subtracting the diameter of the foam (when wet) from the zone measured and dividing by 2. The results are presented in Table 6, with a graphical representation of the ZOI in FIG. 2;

[4] abbreviates: Day 1, daily transfer to fresh agar.
[5] abbreviates: Day 2, daily transfer to fresh agar.
The mark [6] stands for this setting: Day 3, daily transfer to fresh agar.
Setting [7] is: Day 4, daily transfer to fresh agar.
Setting [8] is: Day 7, daily transfer to fresh agar.
The mark [9] stands for this setting: Day 8, daily transfer to fresh agar.
Where [10] appears, read: Day 9, daily transfer to fresh agar.

Each structure is given as a SMILES string. Entries after “also recorded” stand apart in the source; their conditions may differ.

Turning to `CCCCCCCCCCCCCC(=O)O.CCCCCCCCCCCCCC(=O)O.N=C(NCCCCCCNC(=N)NC(=N)Nc1ccc(Cl)cc1)NC(=N)Nc1ccc(Cl)cc1` [Chlorhexidine Myristate, chlorhexidine dimyristate], the “Cumulative release of the chlorhexidine/fatty acid salts from the coated polyurethane tubes” value in data set [1] (Day 1) worked out at 40 g; in data set [1] (Day 7), 98 g; in data set [1] (Day 14) it was 133 g; in data set [1] (Day 21), 147 g; in data set [1] (Day 28), 151 g. For the same compound, the “Release from the coated sample over the test (in words)” value in data set [1] (FIG. 1, 28 days in DI water) is reported as “continually released at an appreciable rate throughout the duration of the test”. Further, in data set [1] (from 21 to 28 days), the “Amount released from the coated sample over the 7 day period” value was 4 µg. The “Log10 reduction of adhered Pseudomonas aeruginosa onto the surface of coated polyurethane tubes” value in data set [2] (7 days) and in data set [2] (21 days) was 7 throughout. For the same compound, the “ZOI produced by impregnated polyurethane foam punches against Candida albicans” value (“ZOI produced” for short) is 27 mm in data set [3] (setting [4]); 34 mm in data set [3] (setting [5]); 32 mm in data set [3] (setting [6]); 18 mm in data set [3] (setting [7]); 16 mm in data set [3] (setting [8]); 16 mm in data set [3] (setting [9]). Besides, the “ZOI produced” value in data set [3] (setting [10]) was 18 mm.
In the case of `CCCCCCCCCCCCCCCCCC(=O)O.CCCCCCCCCCCCCCCCCC(=O)O.N=C(NCCCCCCNC(=N)NC(=N)Nc1ccc(Cl)cc1)NC(=N)Nc1ccc(Cl)cc1` [Chlorhexidine Stearate, chlorhexidine distearate], the “Cumulative release of the chlorhexidine/fatty acid salts from the coated polyurethane tubes” value in data set [1] (Day 1) amounted to 30 g; in data set [1] (Day 7), 76 g; in data set [1] (Day 14), 87 g; in data set [1] (Day 21) it was 95 g; in data set [1] (Day 28), 99 g. Also, the “Percent release of the initial salt concentration from the coated sample” value in data set [1] (after 28 days (FIG. 1)) is recorded as “approximately 40%”. Besides, the “Log10 reduction of adhered Pseudomonas aeruginosa onto the surface of coated polyurethane tubes” value in data set [2] (7 days), in data set [2] (14 days) and in data set [2] (21 days) was 0 in each case. Besides, in data set [2] (coated polyurethane tubes compared to uncoated control), the “Inhibition of adherence / antimicrobial effect against Pseudomonas aeruginosa (in words)” value is given as “did not provide an antimicrobial effect beyond the first day; also recorded: did not inhibit adherence of the challenge organism”. Besides, the “ZOI produced” value in data set [3] (setting [4]) is 11 mm; in data set [3] (setting [5]), 17 mm; in data set [3] (setting [6]) it was 16 mm; in data set [3] (setting [7]), 13 mm; in data set [3] (setting [8]) it was 14 mm; in data set [3] (setting [9]) it was 8 mm. Also, the “ZOI produced” value in data set [3] (setting [10]) stood at 8 mm. Moreover, in data set [3], the “Zone of inhibition compared with the other salts (in words)” value is recorded as “zones of inhibition that were smaller”.
For `CCCCCCCCCC(=O)O.CCCCCCCCCC(=O)O.N=C(NCCCCCCNC(=N)NC(=N)Nc1ccc(Cl)cc1)NC(=N)Nc1ccc(Cl)cc1` [Chlorhexidine Caprate, chlorhexidine caprate], the “Percent release of the initial salt concentration from the coated sample” value in data set [1] (after approximately 7 days (FIG. 1)) amounted to 70%. For the same compound, the “ZOI produced” value in data set [3] (setting [4]) was 14 mm; in data set [3] (setting [5]) it was 18 mm; in data set [3] (setting [6]), 18 mm; in data set [3] (setting [7]) it was 10 mm; in data set [3] (setting [8]), 7 mm; in data set [3] (setting [9]) it was 9 mm. The “ZOI produced” value in data set [3] (setting [10]) is 7 mm. In addition, the “Zone of inhibition compared with the other salts (in words)” value in data set [3] is listed as “zones of inhibition that were smaller”.

These data come from patent US20100069854A1, “Elastomeric Devices Containing Chlorhexidine/Fatty Acid Salts Made From Fatty Acids of 12 to 18 Carbons” (priority 2008, published 2010).
